In patent publication US6600037B1, “4,5-disubstituted-2-aminopyrimidines” (Celltech R & D Limited, priority 1999, dated 2003):

SMILES	melting point [°C]
CC(C)(N)c1ccc(-c2nc(Nc3ccc(CCO)cc3)ncc2Cl)cc1 [Example 1, 4-[4-(1-Amino-1-methylethyl)phenyl]-5-chloro-N-[4-(2-hydroxyethyl)phenyl]pyrimidine-2-amine]	162 to 163
CC(C)(N)c1ccc(-c2nc(Nc3cccc(CCO)c3)ncc2Cl)cc1 [Example 2, 4-[4-(1-Amino-1-methylethyl)phenyl]-5-chloro-N-[3-(2-hydroxyethyl)phenyl]pyrimidine-2-amine]	184 to 185
CC(C)(N)c1ccc(-c2nc(Nc3ccc(-n4ccnc4)cc3)ncc2Cl)cc1 [Example 3, 4-[4-(1-Amino-1-methylethyl)phenyl]-5-chloro-N-[4-(1-imidazolyl)phenyl]pyrimidine-2-amine]	199 to 201
CC(C)(N)c1ccc(-c2nc(Nc3ccc(CCO)cc3)ncc2Cl)cc1F [Example 4, 4-[4-(1-Amino-1-methylethyl)-3-fluorophenyl]-5-chloro-N-[4-(2-hydroxyethyl)phenyl]pyrimidine-2-amine]	172 to 176
C=CCOC(=O)NC(C)(C)c1ccc(-c2nc(Nc3ccc(CCn4ccnc4)cc3)ncc2Cl)cc1 [Example 5, 4-[4-(1-Allyloxycarbonylamino-1-methylethyl)phenyl]-5-chloro-N-[4-(2-(imidazol-1-yl)ethyl)phenyl]pyrimidine-2-amine]	72 to 78
C=CCOC(=O)NC(C)(C)c1ccc(-c2nc(Nc3ccc(CCn4ccnc4)cc3)ncc2Cl)cc1F [Example 7, 4-[4-(1-Allyloxycarbonylamino-1-methylethyl)-3-fluorophenyl]-5-chloro-N-[4-(2-(imidazol-1-yl)ethyl)phenyl]pyrimidine-2-amine]	88
CC(C)(N)c1ccc(-c2nc(Nc3ccc(CCN4CCOCC4)cc3)ncc2Cl)cc1 [Example 9, 4-[4-(1-Amino-1-methylethyl)phenyl]-5-chloro-N-[4-(2-morpholinoethyl)phenyl]pyrimidine-2-amine]	166 to 173
CC(C)(N)c1ccc(-c2nc(Nc3ccc(CCn4ccnc4)cc3)ncc2Cl)cc1F [Example 10, 4-[4-(1-Amino-1-methylethyl)-3-fluorophenyl]-5-chloro-N-[4-(2-(imidazol-1-yl)ethyl)phenyl]pyrimidine 2-amine]	112 to 120
